Experiments:
[1] = compound: NC(=O)CCCCC1CCSS1 [lipoamide]; assay: thermal stability z-score vs DMSO; higher = more thermally stabilized by treatment; conditions: HeLa, lipoamide concentration 100 µM
Experimental: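 Cellular thermal proteome profiling in HeLa cells. Cells were treated with 100 µM lipoamide for 1 h, with or without 1 mM arsenate for a further 1 h, then heated to ten temperatures (37-66.3 °C), and soluble protein was quantified by TMT mass spectrometry relative to 0.1% DMSO controls. The thermal stability score (sum of log2 fold changes minus the abundance score) was transformed to a z-score; mean of n = 3 experiments.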

[2] = compound: O=[As]([O-])(O)O.[K+] [potassium arsenate]; assay: as above; conditions: HeLa; arsenate concentration 1 mM
Experimental: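 Cellular thermal proteome profiling in HeLa cells treated with 1 mM arsenate for 1 h (DMSO pretreatment), heated to ten temperatures (37-66.3 °C). Soluble protein was quantified by TMT mass spectrometry relative to DMSO controls; the thermal stability score was transformed to a z-score; mean of n = 3 experiments.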

[3] = arsenate co-treatment: 1 mM arsenate 1 h
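Further: each temperature applied for 3 min, abundance score taken as mean log2 fold change at the two lowest temperatures, z-score obtained by mean subtraction and division by SD.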

UniProt Q5PRF9, sequence (Q5PRF9 whole entry): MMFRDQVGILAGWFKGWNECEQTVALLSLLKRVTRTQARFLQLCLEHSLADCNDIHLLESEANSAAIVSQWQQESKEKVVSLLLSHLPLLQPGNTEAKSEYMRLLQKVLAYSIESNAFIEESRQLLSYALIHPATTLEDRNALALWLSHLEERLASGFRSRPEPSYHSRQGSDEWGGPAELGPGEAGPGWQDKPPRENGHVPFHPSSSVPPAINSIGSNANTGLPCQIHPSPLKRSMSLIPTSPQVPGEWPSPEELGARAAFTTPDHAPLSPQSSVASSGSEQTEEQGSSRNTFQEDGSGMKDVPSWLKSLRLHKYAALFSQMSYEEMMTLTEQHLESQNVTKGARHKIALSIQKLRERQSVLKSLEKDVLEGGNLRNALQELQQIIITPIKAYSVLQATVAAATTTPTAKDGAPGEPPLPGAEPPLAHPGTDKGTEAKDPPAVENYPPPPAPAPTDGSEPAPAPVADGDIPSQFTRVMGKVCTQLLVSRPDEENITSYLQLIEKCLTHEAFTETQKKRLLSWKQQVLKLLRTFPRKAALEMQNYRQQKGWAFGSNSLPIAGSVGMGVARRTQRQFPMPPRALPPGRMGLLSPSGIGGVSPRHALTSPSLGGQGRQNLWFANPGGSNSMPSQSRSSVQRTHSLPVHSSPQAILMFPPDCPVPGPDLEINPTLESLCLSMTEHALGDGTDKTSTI
UniProt Q04637, sequence (Q04637 whole entry): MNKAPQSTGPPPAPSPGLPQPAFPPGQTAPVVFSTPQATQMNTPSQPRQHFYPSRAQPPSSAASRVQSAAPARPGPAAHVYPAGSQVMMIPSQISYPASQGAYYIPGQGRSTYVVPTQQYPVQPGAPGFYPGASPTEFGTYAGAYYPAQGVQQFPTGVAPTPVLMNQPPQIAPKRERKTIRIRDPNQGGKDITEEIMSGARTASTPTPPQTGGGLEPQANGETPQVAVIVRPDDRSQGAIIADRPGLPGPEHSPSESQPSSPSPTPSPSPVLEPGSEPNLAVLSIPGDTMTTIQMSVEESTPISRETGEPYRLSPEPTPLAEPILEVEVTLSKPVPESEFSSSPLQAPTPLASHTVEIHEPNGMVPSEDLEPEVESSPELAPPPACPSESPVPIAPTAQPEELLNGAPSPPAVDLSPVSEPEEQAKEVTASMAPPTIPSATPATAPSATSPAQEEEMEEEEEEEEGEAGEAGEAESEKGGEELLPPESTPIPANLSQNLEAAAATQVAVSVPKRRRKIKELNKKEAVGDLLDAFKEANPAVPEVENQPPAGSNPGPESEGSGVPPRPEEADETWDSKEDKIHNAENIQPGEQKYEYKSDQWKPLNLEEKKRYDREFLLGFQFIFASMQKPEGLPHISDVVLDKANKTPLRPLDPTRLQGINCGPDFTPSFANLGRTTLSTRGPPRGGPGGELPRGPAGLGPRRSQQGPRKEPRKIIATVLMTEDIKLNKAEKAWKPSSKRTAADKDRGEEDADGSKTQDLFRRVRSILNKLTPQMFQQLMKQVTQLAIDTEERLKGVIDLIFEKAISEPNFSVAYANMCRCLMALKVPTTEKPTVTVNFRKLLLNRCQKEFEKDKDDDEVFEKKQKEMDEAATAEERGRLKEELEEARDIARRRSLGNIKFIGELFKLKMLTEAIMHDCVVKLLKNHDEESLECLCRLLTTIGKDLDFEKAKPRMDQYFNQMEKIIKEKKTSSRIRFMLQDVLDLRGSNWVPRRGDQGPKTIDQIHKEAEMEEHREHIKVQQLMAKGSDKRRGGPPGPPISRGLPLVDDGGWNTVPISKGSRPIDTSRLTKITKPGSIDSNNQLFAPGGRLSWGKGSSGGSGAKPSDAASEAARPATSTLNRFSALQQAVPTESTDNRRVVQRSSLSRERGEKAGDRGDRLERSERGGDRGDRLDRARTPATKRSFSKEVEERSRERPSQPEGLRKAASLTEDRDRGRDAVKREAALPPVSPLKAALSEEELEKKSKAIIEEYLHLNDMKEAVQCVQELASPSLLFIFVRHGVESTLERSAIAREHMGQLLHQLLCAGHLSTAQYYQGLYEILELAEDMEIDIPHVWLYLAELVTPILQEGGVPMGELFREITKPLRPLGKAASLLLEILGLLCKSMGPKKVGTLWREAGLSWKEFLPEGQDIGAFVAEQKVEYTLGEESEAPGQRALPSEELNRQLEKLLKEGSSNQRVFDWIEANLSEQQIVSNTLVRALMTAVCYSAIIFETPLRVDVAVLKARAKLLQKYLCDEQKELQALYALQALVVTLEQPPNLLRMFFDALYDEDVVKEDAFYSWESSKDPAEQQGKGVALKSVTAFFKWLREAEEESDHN
UniProt Q969X6, sequence (Q969X6 whole entry): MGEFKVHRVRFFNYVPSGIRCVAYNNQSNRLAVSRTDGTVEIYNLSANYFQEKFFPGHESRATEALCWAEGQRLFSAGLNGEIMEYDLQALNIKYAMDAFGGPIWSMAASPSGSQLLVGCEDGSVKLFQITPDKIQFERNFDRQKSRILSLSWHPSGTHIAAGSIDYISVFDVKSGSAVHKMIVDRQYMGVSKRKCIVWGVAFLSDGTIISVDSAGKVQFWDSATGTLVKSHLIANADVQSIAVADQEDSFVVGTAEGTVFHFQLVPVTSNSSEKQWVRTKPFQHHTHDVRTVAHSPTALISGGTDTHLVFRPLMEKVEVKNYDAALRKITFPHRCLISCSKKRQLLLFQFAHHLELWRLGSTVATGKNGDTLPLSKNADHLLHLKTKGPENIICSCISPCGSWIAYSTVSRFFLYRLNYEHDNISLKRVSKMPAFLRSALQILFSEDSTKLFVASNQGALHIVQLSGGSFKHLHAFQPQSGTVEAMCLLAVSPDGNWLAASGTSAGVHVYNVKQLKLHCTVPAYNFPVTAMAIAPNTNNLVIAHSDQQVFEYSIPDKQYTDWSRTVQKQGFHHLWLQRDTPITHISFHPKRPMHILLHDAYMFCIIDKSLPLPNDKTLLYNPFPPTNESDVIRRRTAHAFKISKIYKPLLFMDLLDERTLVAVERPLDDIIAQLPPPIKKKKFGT
UniProt Q9NUM4, sequence (Q9NUM4 whole entry): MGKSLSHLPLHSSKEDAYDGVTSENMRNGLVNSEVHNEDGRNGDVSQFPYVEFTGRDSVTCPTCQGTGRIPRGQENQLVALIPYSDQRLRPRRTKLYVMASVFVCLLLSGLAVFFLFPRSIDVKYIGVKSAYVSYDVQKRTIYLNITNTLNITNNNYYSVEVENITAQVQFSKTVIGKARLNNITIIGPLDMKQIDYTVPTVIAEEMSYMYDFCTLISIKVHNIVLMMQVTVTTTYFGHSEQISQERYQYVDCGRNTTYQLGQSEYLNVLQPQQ
UniProt Q9BRT2, sequence (Q9BRT2 whole entry): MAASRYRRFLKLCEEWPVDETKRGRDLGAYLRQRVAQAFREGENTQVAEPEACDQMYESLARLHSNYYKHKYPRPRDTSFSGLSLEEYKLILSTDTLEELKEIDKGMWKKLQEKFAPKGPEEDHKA
UniProt O95833, sequence (O95833 whole entry, looked up): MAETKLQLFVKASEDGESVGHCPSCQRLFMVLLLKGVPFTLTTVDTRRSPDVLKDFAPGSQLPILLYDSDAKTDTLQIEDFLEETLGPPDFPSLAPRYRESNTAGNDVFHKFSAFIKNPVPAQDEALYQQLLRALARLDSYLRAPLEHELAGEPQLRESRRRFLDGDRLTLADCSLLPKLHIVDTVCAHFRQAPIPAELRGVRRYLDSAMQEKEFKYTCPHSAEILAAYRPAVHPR
UniProt Q9BT25, sequence (Q9BT25 whole entry): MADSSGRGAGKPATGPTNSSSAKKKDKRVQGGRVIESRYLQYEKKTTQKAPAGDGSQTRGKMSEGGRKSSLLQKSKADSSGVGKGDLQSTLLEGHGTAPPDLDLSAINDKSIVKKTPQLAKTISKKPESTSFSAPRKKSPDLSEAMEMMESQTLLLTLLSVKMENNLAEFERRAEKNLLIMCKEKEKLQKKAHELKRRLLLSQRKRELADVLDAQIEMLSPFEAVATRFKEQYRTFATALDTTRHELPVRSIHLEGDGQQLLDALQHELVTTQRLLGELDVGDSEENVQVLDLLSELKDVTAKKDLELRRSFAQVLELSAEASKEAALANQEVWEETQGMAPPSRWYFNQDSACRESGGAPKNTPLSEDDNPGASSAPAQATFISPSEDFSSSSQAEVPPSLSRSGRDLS
UniProt Q9Y6B7, sequence (Q9Y6B7 whole entry): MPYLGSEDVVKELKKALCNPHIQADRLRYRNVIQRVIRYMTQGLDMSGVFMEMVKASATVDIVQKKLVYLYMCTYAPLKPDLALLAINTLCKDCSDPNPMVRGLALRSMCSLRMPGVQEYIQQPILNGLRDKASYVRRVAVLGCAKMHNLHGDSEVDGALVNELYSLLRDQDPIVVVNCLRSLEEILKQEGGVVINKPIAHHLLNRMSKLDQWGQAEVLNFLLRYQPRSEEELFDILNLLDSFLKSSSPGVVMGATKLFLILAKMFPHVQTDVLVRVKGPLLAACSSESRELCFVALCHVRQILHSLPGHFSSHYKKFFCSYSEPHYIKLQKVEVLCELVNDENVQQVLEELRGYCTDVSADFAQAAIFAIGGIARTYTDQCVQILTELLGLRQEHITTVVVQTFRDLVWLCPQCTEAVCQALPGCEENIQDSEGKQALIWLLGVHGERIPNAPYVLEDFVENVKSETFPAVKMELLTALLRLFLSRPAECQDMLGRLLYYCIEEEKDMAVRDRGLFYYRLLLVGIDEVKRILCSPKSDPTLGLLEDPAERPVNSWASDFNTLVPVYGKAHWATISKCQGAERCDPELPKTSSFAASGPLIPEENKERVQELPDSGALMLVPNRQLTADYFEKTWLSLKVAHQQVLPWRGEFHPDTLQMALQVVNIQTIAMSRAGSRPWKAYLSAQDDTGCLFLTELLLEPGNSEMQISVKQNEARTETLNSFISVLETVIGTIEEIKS
UniProt Q6UW68, sequence (Q6UW68 whole entry): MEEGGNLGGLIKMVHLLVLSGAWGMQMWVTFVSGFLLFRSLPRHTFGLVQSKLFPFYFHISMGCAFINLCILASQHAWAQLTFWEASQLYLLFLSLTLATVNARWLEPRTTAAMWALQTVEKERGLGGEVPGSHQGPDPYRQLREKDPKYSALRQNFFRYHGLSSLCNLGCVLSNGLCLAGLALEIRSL

Target | thermal stability z-score [1, 3] | thermal stability z-score ([1]; arsenate co-treatment: none) | thermal stability z-score [2]
POLG2 (UniProt Q9UHN1) | 0.00241 | -0.266 | -0.833
TMEM106B (UniProt Q9NUM4) | -0.167 | 0.154 | 0.192
HSDL1 (UniProt Q3SXM5) | -0.0659 | -0.0958 | -1.43
FNBP1L (UniProt Q5T0N5) | -0.051 | 0.0394 | -0.284
SAMD4B (UniProt Q5PRF9) | 0.14 | 0.116 | -0.143
TMEM160 (UniProt Q9NX00) | -0.0998 | 0.628 | 0.0213
NLN (UniProt Q9BYT8) | -0.0488 | 0.000162 | -0.079
ERI3 (UniProt O43414) | 0.468 | 0.154 | 0.102
AP4B1 (UniProt Q9Y6B7) | 0.0905 | -0.147 | -0.137
NARS (UniProt O43776) | -0.596 | -0.292 | 1.17
TRIM29 (UniProt Q14134) | -0.0886 | 0.185 | -0.177
UQCC2 (UniProt Q9BRT2) | 0.0305 | -0.239 | 0.139
CLIC3 (UniProt O95833) | 0.00456 | 0.0631 | -0.0618
HGH1 (UniProt Q9BTY7) | 0.403 | 0.226 | 0.787
OAT (UniProt P04181) | -0.684 | -0.588 | 3.08
TMEM165 (UniProt Q9HC07) | 0.669 | -0.0469 | 0.116
NECTIN3 (UniProt Q9NQS3) | -0.126 | -0.303 | 0.432
SPRYD7 (UniProt Q5W111) | 0.397 | 0.0188 | -0.339
HYI (UniProt Q5T013) | 1.85 | 0.651 | 0.524
HAUS8 (UniProt Q9BT25) | 0.268 | 0.632 | 1.71
BCS1L (UniProt Q9Y276) | 0.472 | 0.86 | 0.3
TMEM205 (UniProt Q6UW68) | 1.01 | 0.394 | 1.79
NUFIP2 (UniProt Q7Z417) | 0.354 | 0.487 | 1.08
EIF4G1 (UniProt Q04637) | -0.164 | -0.0562 | -0.0263
LLGL2 (UniProt Q6P1M3) | -0.179 | -0.122 | -0.318
XRCC4 (UniProt Q13426) | 2.01 | 1.89 | 1.24
H2AFY (UniProt O75367) | 0.112 | 0.0481 | 0.327
NUTF2 (UniProt P61970) | 0.312 | 0.256 | -0.609
NDUFC2 (UniProt O95298) | 1.34 | 0.996 | 2.15
UTP4 (UniProt Q969X6) | 0.167 | 0.0645 | 0.0306
